Laboratory results published in article PMC5218480 (PLoS ONE, 2017).

Tested on: MV-4-11 cells
Assay: Gene expression microarray analysis (Affymetrix PrimeView) and GSEA
Assay type: cell-based, human
Set-up: RFU PODN (11730768_x_at) / Fold change /veh PODN (11730768_x_at) / RFU LINC00158 (11744669_a_at) / Fold change /veh LINC00158 (11744669_a_at) / RFU DUSP10 (11751237_a_at) / Fold change /veh DUSP10 (11751237_a_at) / RFU ID3 (11757404_x_at) / Fold change /veh ID3 (11757404_x_at) / RFU PLEKHG5 (11737974_s_at) / Fold change /veh PLEKHG5 (11737974_s_at) / RFU LRRC4B (11730491_at) / Fold change /veh LRRC4B (11730491_at) / RFU GIMAP4 (11747438_a_at) / Fold change /veh GIMAP4 (11747438_a_at) / RFU KRT8 (11758183_x_at) / Fold change /veh KRT8 (11758183_x_at) / RFU CNN1 (11734310_a_at) / Fold change /veh CNN1 (11734310_a_at) / RFU VPS37D (11726825_at) / Fold change /veh VPS37D (11726825_at) / RFU C10orf10 (11716522_x_at) / Fold change /veh C10orf10 (11716522_x_at) / RFU KIR2DL2 /// KIR2DL4 /// KIR2DL5A /// KIR2DL5B /// KIR2DS1 /// KIR2DS2 /// KIR2DS3 /// KIR2DS4 /// KIR3DL3 /// KIR3DL3 /// KIR3DS1 (11738374_at) / Fold change /veh KIR2DL2 /// KIR2DL4 /// KIR2DL5A /// KIR2DL5B /// KIR2DS1 /// KIR2DS2 /// KIR2DS3 /// KIR2DS4 /// KIR3DL3 /// KIR3DL3 /// KIR3DS1 (11738374_at) / RFU C1QL1 (11718748_at) / Fold change /veh C1QL1 (11718748_at) / RFU TMPRSS4 (11747572_a_at) / Fold change /veh TMPRSS4 (11747572_a_at) / RFU HAMP (11756126_x_at) / Fold change /veh HAMP (11756126_x_at) / RFU RNFT2 (11725882_a_at) / Fold change /veh RNFT2 (11725882_a_at) / RFU NR4A2 (11747474_a_at) / Fold change /veh NR4A2 (11747474_a_at) / RFU ABCC12 (11746883_a_at) / Fold change /veh ABCC12 (11746883_a_at) / RFU TMEM136 (11760407_x_at) / Fold change /veh TMEM136 (11760407_x_at) / RFU CLDN22 /// WWC2 (11732394_at) / Fold change /veh CLDN22 /// WWC2 (11732394_at) / RFU HLA-DPB1 (11760878_x_at) / Fold change /veh HLA-DPB1 (11760878_x_at) / RFU SPINT1 (11716480_a_at) / Fold change /veh SPINT1 (11716480_a_at) / RFU GAP43 (11754022_s_at) / Fold change /veh GAP43 (11754022_s_at) / RFU A4GNT (11735810_at) / Fold change /veh A4GNT (11735810_at) / RFU PRB3 (11715151_x_at) / Fold change /veh PRB3 (11715151_x_at) / RFU TUBB4B (11761932_at) / Fold change /veh TUBB4B (11761932_at) / RFU CAPN14 (11732068_a_at) / Fold change /veh CAPN14 (11732068_a_at) / RFU TMCC2 (11721928_a_at) / Fold change /veh TMCC2 (11721928_a_at) / RFU IRGQ (11745062_a_at) / Fold change /veh IRGQ (11745062_a_at) / RFU FAM174B (11720279_a_at) / Fold change /veh FAM174B (11720279_a_at) / RFU TMPRSS4 (11748680_a_at) / Fold change /veh TMPRSS4 (11748680_a_at) / RFU FAM212B (11763350_a_at) / Fold change /veh FAM212B (11763350_a_at) / RFU PLEKHG5 (11743358_a_at) / Fold change /veh PLEKHG5 (11743358_a_at) / RFU ZSCAN30 (11745921_a_at) / Fold change /veh ZSCAN30 (11745921_a_at) / RFU CMKLR1 (11741424_a_at) / Fold change /veh CMKLR1 (11741424_a_at) / RFU LOC101060620 /// MAPK8IP1 (11723275_at) / Fold change /veh LOC101060620 /// MAPK8IP1 (11723275_at) / RFU SPTSSB (11747773_x_at) / Fold change /veh SPTSSB (11747773_x_at) / RFU PRSS12 (11739890_at) / Fold change /veh PRSS12 (11739890_at) / RFU BIN1 (11741810_x_at) / Fold change /veh BIN1 (11741810_x_at) / RFU WNT11 (11732464_a_at) / Fold change /veh WNT11 (11732464_a_at) / RFU C10orf10 (11716521_a_at) / Fold change /veh C10orf10 (11716521_a_at) / RFU C5orf56 (11738089_at) / Fold change /veh C5orf56 (11738089_at) / RFU CYB561 (11721691_x_at) / Fold change /veh CYB561 (11721691_x_at) / RFU ANKRD19P (11752326_a_at) / Fold change /veh ANKRD19P (11752326_a_at) / RFU OR2T12 /// OR2T33 /// OR2T8 (11738714_s_at) / Fold change /veh OR2T12 /// OR2T33 /// OR2T8 (11738714_s_at) / RFU VCAN (11748164_a_at) / Fold change /veh VCAN (11748164_a_at) / RFU JSRP1 (11732532_at) / Fold change /veh JSRP1 (11732532_at) / RFU KRTAP10-11 (11738290_x_at) / Fold change /veh KRTAP10-11 (11738290_x_at) / RFU MYO3A (11730013_a_at) / Fold change /veh MYO3A (11730013_a_at) / RFU EBF3 (11725865_a_at) / Fold change /veh EBF3 (11725865_a_at) / RFU CAMK2N1 (11719241_x_at) / Fold change /veh CAMK2N1 (11719241_x_at) / RFU C5orf56 (11738088_a_at) / Fold change /veh C5orf56 (11738088_a_at) / RFU OLFML3 (11715873_a_at) / Fold change /veh OLFML3 (11715873_a_at) / RFU LOC100653217 /// NTM (11731650_a_at) / Fold change /veh LOC100653217 /// NTM (11731650_a_at) / RFU MAPK11 (11762145_a_at) / Fold change /veh MAPK11 (11762145_a_at) / RFU FIZ1 (11724087_x_at) / Fold change /veh FIZ1 (11724087_x_at) / RFU OASL (11726364_x_at) / Fold change /veh OASL (11726364_x_at) / RFU SOX15 (11748057_x_at) / Fold change /veh SOX15 (11748057_x_at) / RFU CD79A (11719716_a_at) / Fold change /veh CD79A (11719716_a_at) / RFU HIST1H1D (11736915_at) / Fold change /veh HIST1H1D (11736915_at) / RFU CASKIN2 (11723855_a_at) / Fold change /veh CASKIN2 (11723855_a_at) / RFU LOC730098 (11760151_x_at) / Fold change /veh LOC730098 (11760151_x_at) / RFU OR4N2 (11742367_at) / Fold change /veh OR4N2 (11742367_at) / RFU PRRT2 (11749266_a_at) / Fold change /veh PRRT2 (11749266_a_at) / RFU SNX32 (11753110_a_at) / Fold change /veh SNX32 (11753110_a_at) / RFU CDHR5 (11726645_a_at) / Fold change /veh CDHR5 (11726645_a_at) / RFU RCAN1 (11760418_a_at) / Fold change /veh RCAN1 (11760418_a_at) / RFU FAM167A (11723789_a_at) / Fold change /veh FAM167A (11723789_a_at) / RFU FAM26E (11764081_at) / Fold change /veh FAM26E (11764081_at) / RFU ISYNA1 (11749810_s_at) / Fold change /veh ISYNA1 (11749810_s_at) / RFU ACY1 (11761880_at) / Fold change /veh ACY1 (11761880_at) / RFU 11764098_at / Fold change /veh 11764098_at / RFU SAMD14 (11745864_x_at) / Fold change /veh SAMD14 (11745864_x_at) / RFU NPB (11741838_a_at) / Fold change /veh NPB (11741838_a_at) / RFU TMPRSS6 (11731388_a_at) / Fold change /veh TMPRSS6 (11731388_a_at) / RFU KRTAP10-2 (11738614_at) / Fold change /veh KRTAP10-2 (11738614_at) / RFU ARHGAP8 /// PRR5-ARHGAP8 (11727945_x_at) / Fold change /veh ARHGAP8 /// PRR5-ARHGAP8 (11727945_x_at) / RFU KRTAP5-7 /// NADSYN1 (11734609_at) / Fold change /veh KRTAP5-7 /// NADSYN1 (11734609_at) / RFU RASL12 (11751679_a_at) / Fold change /veh RASL12 (11751679_a_at) / RFU CDKN2B (11736163_a_at) / Fold change /veh CDKN2B (11736163_a_at) / RFU PRF1 (11729649_at) / Fold change /veh PRF1 (11729649_at) / RFU, ZNF638 /// ZNF638-IT1 / Fold change vs veh, ZNF638 /// ZNF638-IT1 / RFU, PANK3 / Fold change vs veh, PANK3 / RFU, SH3YL1 / Fold change vs veh, SH3YL1 / RFU, ZEB2 / Fold change vs veh, ZEB2 / RFU, NRIP1 / Fold change vs veh, NRIP1 / RFU, PTTG1IP / Fold change vs veh, PTTG1IP / RFU, CAPN2 / Fold change vs veh, CAPN2 / RFU, MED14 / Fold change vs veh, MED14 / RFU, SNORA58 / Fold change vs veh, SNORA58 / RFU, C1orf63 / Fold change vs veh, C1orf63 / RFU, LRRFIP1 / Fold change vs veh, LRRFIP1 / RFU, NDUFAF7 / Fold change vs veh, NDUFAF7 / RFU, SLC12A2 / Fold change vs veh, SLC12A2 / RFU, IBTK / Fold change vs veh, IBTK / RFU, ESF1 / Fold change vs veh, ESF1 / Fold change vs veh, TMEM50B / RFU, TAOK1 / Fold change vs veh, TAOK1 / RFU, ACBD3 / Fold change vs veh, ACBD3 / RFU, TMA16 / Fold change vs veh, TMA16 / RFU, RWDD3 / Fold change vs veh, RWDD3 / RFU, BCAT1 / Fold change vs veh, BCAT1 / RFU, EDEM3 / Fold change vs veh, EDEM3 / RFU, TMEM33 / Fold change vs veh, TMEM33 / RFU, WDR75 / Fold change vs veh, WDR75 / RFU, AHCTF1 / Fold change vs veh, AHCTF1 / RFU, TFRC / Fold change vs veh, TFRC / RFU, ZDHHC17 / Fold change vs veh, ZDHHC17 / RFU, NOM1 / Fold change vs veh, NOM1 / RFU, ARL8B / Fold change vs veh, ARL8B / RFU, ZBTB11 / Fold change vs veh, ZBTB11 / RFU, TAMM41 / Fold change vs veh, TAMM41 / RFU, KIAA1704 /// LOC100996395 / Fold change vs veh, KIAA1704 /// LOC100996395 / RFU, ING1 / Fold change vs veh, ING1 / RFU, TRMT61B / Fold change vs veh, TRMT61B / RFU, FUBP3 / Fold change vs veh, FUBP3 / RFU, TP53 / Fold change vs veh, TP53 / RFU, TNKS2 / Fold change vs veh, TNKS2 / RFU, ZFP14 / Fold change vs veh, ZFP14 / RFU, ACTR2 / Fold change vs veh, ACTR2 / RFU, PPP3R1 / Fold change vs veh, PPP3R1 / RFU, PIK3R1 / Fold change vs veh, PIK3R1 / RFU, HNRNPA1 / Fold change vs veh, HNRNPA1 / RFU, RNF170 / Fold change vs veh, RNF170 / RFU, ZNF28 / Fold change vs veh, ZNF28 / RFU, RNGTT / Fold change vs veh, RNGTT / RFU, OGT / Fold change vs veh, OGT / RFU, BRD1 / Fold change vs veh, BRD1 / RFU, MARS / Fold change vs veh, MARS / RFU, ZNF655 / Fold change vs veh, ZNF655 / RFU, FAHD1 / Fold change vs veh, FAHD1 / RFU, BDP1 / Fold change vs veh, BDP1 / RFU, LRRCC1 / Fold change vs veh, LRRCC1 / RFU, ARID1A / Fold change vs veh, ARID1A / RFU, ZNF146 / Fold change vs veh, ZNF146 / RFU, ZNF330 / Fold change vs veh, ZNF330 / RFU, GPN3 / Fold change vs veh, GPN3 / RFU, C9orf123 / Fold change vs veh, C9orf123 / RFU, N4BP2L2 / Fold change vs veh, N4BP2L2 / RFU, ARFIP1 / Fold change vs veh, ARFIP1 / RFU, FAM179B / Fold change vs veh, FAM179B / RFU, BCL10 / Fold change vs veh, BCL10 / RFU, UHRF1BP1L / Fold change vs veh, UHRF1BP1L / RFU, BET1 / Fold change vs veh, BET1 / RFU, CNOT2 / Fold change vs veh, CNOT2 / RFU, ZNF268 / Fold change vs veh, ZNF268 / Fold change vs veh, ZNF507 / RFU, DGCR2 / Fold change vs veh, DGCR2 / RFU, WDSUB1 / Fold change vs veh, WDSUB1 / Fold change vs veh, HSP90B1 /// MIR3652 / RFU, ADSS / Fold change vs veh, ADSS / RFU, GK / Fold change vs veh, GK / RFU, ZNF148 / Fold change vs veh, ZNF148 / RFU, TAF9 / Fold change vs veh, TAF9 / RFU, SLC1A5 / Fold change vs veh, SLC1A5 / RFU, SLMO2 / Fold change vs veh, SLMO2 / RFU, ABCC4 / Fold change vs veh, ABCC4 / RFU, LOC101060439 /// RAP1B / Fold change vs veh, LOC101060439 /// RAP1B / RFU, RFX7 / Fold change vs veh, RFX7 / RFU, GTPBP10 / Fold change vs veh, GTPBP10 / RFU, CNEP1R1 / Fold change vs veh, CNEP1R1 / RFU, BIVM-ERCC5 /// ERCC5 / Fold change vs veh, BIVM-ERCC5 /// ERCC5 / RFU, ILF3 / Fold change vs veh, ILF3 / RFU 11762660_at / Fold change /veh 11762660_at / RFU VCAN (11757783_s_at) / Fold change /veh VCAN (11757783_s_at) / RFU DDX43 (11728927_at) / Fold change /veh DDX43 (11728927_at) / RFU KRT8 (11758188_x_at) / Fold change /veh KRT8 (11758188_x_at) / RFU NKD1 (11759106_at) / Fold change /veh NKD1 (11759106_at) / RFU SRD5A1 (11742802_a_at) / Fold change /veh SRD5A1 (11742802_a_at) / RFU TPSAB1 /// TPSB2 (11721975_s_at) / Fold change /veh TPSAB1 /// TPSB2 (11721975_s_at) / RFU GSTM3 (11746129_a_at) / Fold change /veh GSTM3 (11746129_a_at) / RFU IL23R (11737362_x_at) / Fold change /veh IL23R (11737362_x_at) / RFU TMEM51 (11727254_a_at) / Fold change /veh TMEM51 (11727254_a_at) / RFU PIWIL2 (11732686_x_at) / Fold change /veh PIWIL2 (11732686_x_at) / RFU ORM1 (11744905_x_at) / Fold change /veh ORM1 (11744905_x_at) / RFU CCDC152 (11743942_at) / Fold change /veh CCDC152 (11743942_at) / RFU ECM1 (11717891_a_at) / Fold change /veh ECM1 (11717891_a_at) / RFU IL23R (11748794_a_at) / Fold change /veh IL23R (11748794_a_at) / RFU TNFAIP8L3 (11732012_x_at) / Fold change /veh TNFAIP8L3 (11732012_x_at) / RFU MBOAT4 (11741988_at) / Fold change /veh MBOAT4 (11741988_at) / RFU 11764193_at / Fold change /veh 11764193_at / RFU TMEM53 (11763286_at) / Fold change /veh TMEM53 (11763286_at) / RFU MAGEB2 (11727129_at) / Fold change /veh MAGEB2 (11727129_at) / RFU TMEM200A (11744735_a_at) / Fold change /veh TMEM200A (11744735_a_at) / RFU CCDC152 (11751479_a_at) / Fold change /veh CCDC152 (11751479_a_at) / RFU FAM211A (11726209_a_at) / Fold change /veh FAM211A (11726209_a_at) / RFU RGS16 (11746705_a_at) / Fold change /veh RGS16 (11746705_a_at) / RFU VCAN (11755009_s_at) / Fold change /veh VCAN (11755009_s_at) / RFU RHOB (11743442_s_at) / Fold change /veh RHOB (11743442_s_at) / RFU RGS16 (11720943_a_at) / Fold change /veh RGS16 (11720943_a_at) / RFU RGS16 (11720944_at) / Fold change /veh RGS16 (11720944_at) / RFU, VPS4B / Fold change vs veh, VPS4B / RFU, CREB1 / Fold change vs veh, CREB1 / RFU, DNAJC13 / Fold change vs veh, DNAJC13 / RFU, GNAQ / Fold change vs veh, GNAQ / RFU, CDK5R1 / Fold change vs veh, CDK5R1 / RFU, ZRANB3 / Fold change vs veh, ZRANB3 / RFU, CUL4A / Fold change vs veh, CUL4A / RFU, CCNY / Fold change vs veh, CCNY / RFU, UFL1 / Fold change vs veh, UFL1 / RFU, COG3 / Fold change vs veh, COG3 / RFU, DIAPH2 / Fold change vs veh, DIAPH2 / RFU, SKA2 / Fold change vs veh, SKA2 / RFU, AFF3 / Fold change vs veh, AFF3 / RFU, LMF1 / Fold change vs veh, LMF1 / RFU, IPO11 / Fold change vs veh, IPO11 / RFU, DFFB / Fold change vs veh, DFFB / RFU, FOXP1 / Fold change vs veh, FOXP1 / RFU, CARD8 / Fold change vs veh, CARD8 / RFU, STRN3 / Fold change vs veh, STRN3 / RFU, ADK / Fold change vs veh, ADK / RFU, RASSF2 / Fold change vs veh, RASSF2 / RFU, WIPF1 / Fold change vs veh, WIPF1 / RFU, LARP1B / Fold change vs veh, LARP1B / RFU, RASA1 / Fold change vs veh, RASA1 / RFU, RB1 / Fold change vs veh, RB1 / RFU, PPFIA1 / Fold change vs veh, PPFIA1 / RFU, MAT2A / Fold change vs veh, MAT2A / RFU, CCT5 / Fold change vs veh, CCT5 / RFU, WDR92 / Fold change vs veh, WDR92 / RFU, CUX1 / Fold change vs veh, CUX1 / RFU, TTC7A / Fold change vs veh, TTC7A / RFU, TMEM135 / Fold change vs veh, TMEM135 / RFU, DEPTOR / Fold change vs veh, DEPTOR / RFU, CPM / Fold change vs veh, CPM / RFU, DNAJB6 / Fold change vs veh, DNAJB6 / RFU, CACNA2D3 / Fold change vs veh, CACNA2D3 / RFU, DTX4 / Fold change vs veh, DTX4 / RFU, TFCP2 / Fold change vs veh, TFCP2 / RFU, GMCL1 /// GMCL1P1 / Fold change vs veh, GMCL1 /// GMCL1P1 / RFU, AEBP2 / Fold change vs veh, AEBP2 / RFU, SNHG1 /// SNORD22 /// SNORD25 /// SNORD26 /// SNORD27 /// SNORD28 /// SNORD29 /// SNORD31 / Fold change vs veh, SNHG1 /// SNORD22 /// SNORD25 /// SNORD26 /// SNORD27 /// SNORD28 /// SNORD29 /// SNORD31 / Fold change (Aza/veh), C12orf56 (ProbeSet 11735607_a_at) / Fold change (ACY-1035/veh), C12orf56 (ProbeSet 11735607_a_at) / Fold change (Aza/veh), FGFR1OP (ProbeSet 11751329_s_at) / Fold change (ACY-1035/veh), FGFR1OP (ProbeSet 11751329_s_at) / Fold change (Aza/veh), VPS36 (ProbeSet 11739960_a_at) / Fold change (ACY-1035/veh), VPS36 (ProbeSet 11739960_a_at) / RFU SYPL1 (11715823_x_at) / Fold change /veh SYPL1 (11715823_x_at) / RFU IGFBP7 (11715501_s_at) / Fold change /veh IGFBP7 (11715501_s_at) / RFU REEP3 (11722064_at) / Fold change /veh REEP3 (11722064_at) / RFU IGLL1 (11728026_x_at) / Fold change /veh IGLL1 (11728026_x_at): dose or concentration left out as unconfirmed
Details: ProbeSet 11731583_a_at; LIST D

Compound: Nc1ccc(-c2cccs2)cc1NC(=O)c1ccc2c(c1)cc(C1CC1)n2CCN1CCOCC1 [ACY-1035]
- Fold change vs veh, LARP1B: 0.85
